# Test results taken from patent US12459951B2, “Compounds that interact with RAS superfamily proteins for treatment of cancers, inflammatory diseases, rasopathies, and fibrotic disease” (SHY Therapeutics, LLC, priority 2022, dated 2025).
# Where two headings read alike, the source gives them in different places.
# Tests used:
# Format in all cases: cell-based
# [1] = tested on: IL6; assay: IL-6 Quantification Assay (ELISA), LPS-stimulated RAW 264.7; design: inhibition: dose or concentration left out as unconfirmed; conditions: Mus musculus, RAW264.7; read-out: IL-6: % inh.
# [2] = tested on: TNF-alpha; assay: TNF-alpha Quantification Assay (ELISA), LPS-stimulated RAW 264.7; conditions: Mus musculus, RAW264.7; at 10 μM; read-out: TNFα: % inh.
# [3] = tested on: MiaPaca-2 (expressing KRAS G12C mutant); assay: Proliferation Assay (Cell Viability Assay); conditions: Homo sapiens, MIA PaCa-2
# Procedure, shortened: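 MiaPaca-2 cells (KRAS G12C) were grown in DMEM-high glucose with 10% FBS, seeded at 2000–5000 cells/well and cultured overnight. Compounds were added at 10 μM final, or as serial dilutions for IC50, in 0.3% DMSO/10% FBS for 2–4 days at 37 °C, 5% CO2. Viability was measured with CellTiter 96 Aqueous One and % inhibition calculated.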
# [4] = read-out: Proliferation in MiaPaca-2: IC50
"IC50 [3, 4]","IC50 ([3]; Proliferation assay, MiaPaca-2, read-out: MiaPaca-2 IC50 (nM) Pancreatic)",SMILES,inhibition [1],inhibition at 10 µM [2]
150 to 500 nM,–,"COc1ccnc(Nc2nc(-c3nccn3C)nn3cc(-c4ccn(C)n4)c(C(=O)NCC(F)(F)F)c23)c1 [Compound 174, 4-((4-Methoxypyridin-2-yl)amino)-2-(1-methyl-1H-imidazol-2-yl)-6-(1-methyl-1H-pyrazol-3-yl)-N-(2,2,2-trifluoro-ethyl)pyrrolo[2,1-f][1,2,4]triazine-5-carboxamide]",1 to 24%,0%
150 to 500 nM,–,"COc1ccnc(Nc2nc(-c3nccn3C)nn3cc(-c4ccn(C)n4)c(C(=O)NC4CC4)c23)c1 [Compound 175, N-Cyclopropyl-4-((4-methoxypyridin-2-yl)amino)-2-(1-methyl-1H-imidazol-2-yl)-6-(1-methyl-1H-pyrazol-3-yl)pyrrolo[2,1-f][1,2,4]triazine-5-carboxamide]",75 to 100%,0%
510 to 1000 nM,–,"COCCNC(=O)c1c(-c2ccn(C)n2)cn2nc(-c3nccn3C)nc(Nc3cc(OC)ccn3)c12 [Compound 176, N-(2-Methoxyethyl)-4-((4-methoxypyridin-2-yl)amino)-2-(1-methyl-1H-imidazol-2-yl)-6-(1-methyl-1H-pyrazol-3-yl)pyrrolo[2,1-f][1,2,4]triazine-5-carboxamide]",75 to 100%,0%
> 1000 nM,–,"COc1ccnc(Nc2nc(-c3nccn3C)nn3cc(-c4ccn(C)n4)c(C(=O)NCCN(C)C)c23)c1 [Compound 177, N-(2-(Dimethylamino)ethyl)-4-((4-methoxypyridin-2-yl)amino)-2-(1-methyl-1H-imidazol-2-yl)-6-(1-methyl-1H-pyrazol-3-yl)pyrrolo[2,1-f][1,2,4]triazine-5-carboxamide]",75 to 100%,0%
> 1000 nM,–,"COc1ccnc(Nc2nc(-c3nccn3C)nn3cc(-c4ccn(C)n4)c(C(=O)N4CCCC4)c23)c1 [Compound 178, (4-((4-Methoxypyridin-2-yl)amino)-2-(1-methyl-1H-imidazol-2-yl)-6-(1-methyl-1H-pyrazol-3-yl)pyrrolo[2,1-f][1,2,4]triazin-5-yl)(pyrrolidin-1-yl)methanone]",50 to 74%,0%
> 1000 nM,–,"COc1ccnc(Nc2nc(-c3nccn3C)nn3cc(-c4ccn(C)n4)c(C(=O)N4CCOCC4)c23)c1 [Compound 179, (4-((4-Methoxypyridin-2-yl)amino)-2-(1-methyl-1H-imidazol-2-yl)-6-(1-methyl-1H-pyrazol-3-yl)pyrrolo[2,1-f][1,2,4]triazin-5-yl)(morpho-lino)methanone]",50 to 74%,0%
> 1000 nM,–,"Cc1c(-c2ccn(C)n2)cn2nc(-c3nccn3C)nc(Nc3cc(OCCNC(=O)CCCC[C@H]4SC[C@H]5NC(=O)N[C@H]54)ccn3)c12 [Compound 186, N-(2-((2-((5-Methyl-2-(1-methyl-1H-imidazol-2-yl)-6-(1-methyl-1H-pyrazol-3-yl)pyrrolo[2,1-f][1,2,4]triazin-4-yl)amino)pyridin-4-yl)oxy)ethyl)-5-((3aR,4R,6aS)-2-oxohexahydro-1H-thieno[3,4-d]imidazol-4-yl)pentanamide]",1 to 24%,1 to 24%
> 1000 nM,–,"Cn1ccnc1-c1nc(O)c2c(-c3ccccc3)c(-c3cccnc3)cn2n1 [Compound 189, 2-(1-Methyl-1H-imidazol-2-yl)-5-phenyl-6-(pyridin-3-yl)pyrrolo[2,1-f][1,2,4]triazin-4-ol]",0%,1 to 24%
> 1000 nM,–,"Cc1c(-c2ccn(C)n2)cn2nc(-c3nccn3C)nc(N)c12 [Compound 211, 5-Methyl-2-(1-methyl-1H-imidazol-2-yl)-6-(1-methyl-1H-pyrazol-3-yl)pyrrolo[2,1-f][1,2,4]triazin-4-amine]",50 to 74%,0%
> 1000 nM,–,"COc1ccnc(Nc2nc(-c3nccn3CCNC(=O)CCCC[C@H]3SC[C@H]4NC(=O)N[C@H]43)nn3cc(-c4ccn(C)n4)c(C)c23)c1 [Compound 216, N-(2-(2-(4-((4-methoxypyridin-2-yl)amino)-5-methyl-6-(1-methyl-1H-pyrazol-3-yl)pyrrolo[2,1-f][1,2,4]triazin-2-yl)-1H-imidazol-1-yl)ethyl)-5-((3aR,4R,6aS)-2-oxohexahydro-1H-thieno[3,4-d]imidazol-4-yl)pentanamide]",50 to 74%,25 to 49%
510 to 1000 nM,–,"COc1cccc(-c2cn3nc(-c4nccn4C)nc(N[C@H]4C[C@H](OC)C4)c3c2-c2ccccc2)c1OC [Compound 219, 6-(2,3-Dimethoxyphenyl)-N-((1r,3r)-3-methoxycyclobutyl)-2-(1-methyl-1H-imidazol-2-yl)-5-phenylpyrrolo[2,1-f][1,2,4]triazin-4-amine]",75 to 100%,75 to 100%
< 150 nM,1 to 10 nM,"Cc1c(-c2ccn(C)n2)cn2nc(-c3nccn3C)nc(Nc3cc(N4CCOCC4)ccn3)c12 [Compound 222, 5-Methyl-2-(1-methyl-1H-imidazol-2-yl)-6-(1-methyl-1H-pyrazol-3-yl)-N-(4-morpholinopyridin-2-yl)pyrrolo[2,1-f][1,2,4]triazin-4-amine]",50 to 74%,0%
> 1000 nM,–,"COc1ccnc(N(C)c2nc(-c3nccn3C)nn3cc(-c4ccn(C)n4)c(C)c23)c1 [Compound 223, N-(4-Methoxypyridin-2-yl)-N,5-dimethyl-2-(1-methyl-1H-imidazol-2-yl)-6-(1-methyl-1H-pyrazol-3-yl)pyrrolo[2,1-f][1,2,4]triazin-4-amine]",0%,1 to 24%
< 150 nM,–,"COc1ccc(Nc2nc(-c3nccn3C)nn3cc(-c4ccn(C)n4)c(C)c23)nc1 [Compound 224, N-(5-Methoxypyridin-2-yl)-5-methyl-2-(1-methyl-1H-imidazol-2-yl)-6-(1-methyl-1H-pyrazol-3-yl)pyrrolo[2,1-f][1,2,4]triazin-4-amine]",50 to 74%,1 to 24%
> 1000 nM,–,"COc1ccc(N(C)c2nc(-c3nccn3C)nn3cc(-c4ccn(C)n4)c(C)c23)nc1 [Compound 225, N-(5-Methoxypyridin-2-yl)-N,5-dimethyl-2-(1-methyl-1H-imidazol-2-yl)-6-(1-methyl-1H-pyrazol-3-yl)pyrrolo[2,1-f][1,2,4]triazin-4-amine]",0%,0%
< 150 nM,–,"Cc1ccc(Nc2nc(-c3nccn3C)nn3cc(-c4ccn(C)n4)c(C)c23)nc1 [Compound 226, 5-Methyl-2-(1-methyl-1H-imidazol-2-yl)-6-(1-methyl-1H-pyrazol-3-yl)-N-(5-methylpyridin-2-yl)pyrrolo[2,1-f][1,2,4]triazin-4-amine]",50 to 74%,25 to 49%
< 150 nM,–,"Cc1c(-c2ccn(C)n2)cn2nc(-c3nccn3C)nc(Nc3ccc(N(C)C)cn3)c12 [Compound 227, N5,N5-Dimethyl-N2-(5-methyl-2-(1-methyl-1H-imidazol-2-yl)-6-(1-methyl-1H-pyrazol-3-yl)pyrrolo[2,1-f][1,2,4]triazin-4-yl)pyridine-2,5-diamine]",50 to 74%,50 to 74%
< 150 nM,–,"Cc1c(-c2ccn(C)n2)cn2nc(-c3nccn3C)nc(Nc3ccc(N4CCCC4)cn3)c12 [Compound 228, 5-Methyl-2-(1-methyl-1H-imidazol-2-yl)-6-(1-methyl-1H-pyrazol-3-yl)-N-(5-(pyrrolidin-1-yl)pyridin-2-yl)pyrrolo[2,1-f][1,2,4]triazin-4-amine]",25 to 49%,1 to 24%
150 to 500 nM,–,"CCOc1ccc(Nc2nc(-c3nccn3C)nn3cc(-c4ccn(C)n4)c(C)c23)nc1 [Compound 229, N-(5-Ethoxypyridin-2-yl)-5-methyl-2-(1-methyl-1H-imidazol-2-yl)-6-(1-methyl-1H-pyrazol-3-yl)pyrrolo[2,1-f][1,2,4]triazin-4-amine]",26 to 49%,0%
< 150 nM,–,"Cc1c(-c2ccn(C)n2)cn2nc(-c3nccn3C)nc(Nc3ccc(OCC(F)(F)F)cn3)c12 [Compound 230, 5-Methyl-2-(1-methyl-1H-imidazol-2-yl)-6-(1-methyl-1H-pyrazol-3-yl)-N-(5-(2,2,2-trifluoroethoxy)pyridin-2-yl)pyrrolo[2,1-f][1,2,4]triazin-4-amine]",50 to 74%,1 to 24%
< 150 nM,–,"Cc1c(-c2ccn(C)n2)cn2nc(-c3nccn3C)nc(Nc3ccc(OC(F)F)cn3)c12 [Compound 231, N-(5-(Difluorometh-oxy)pyridin-2-yl)-5-methyl-2-(1-methyl-1H-imidazol-2-yl)-6-(1-methyl-1H-pyrazol-3-yl)pyrrolo[2,1-f][1,2,4]triazin-4-amine]",1 to 24%,0%
< 150 nM,–,"Cc1c(-c2ccn(C)n2)cn2nc(-c3nccn3C)nc(Nc3ccc(OC(F)(F)F)cn3)c12 [Compound 232, 5-Methyl-2-(1-methyl-1H-imidazol-2-yl)-6-(1-methyl-1H-pyrazol-3-yl)-N-(5-(trifluoro-methoxy)pyridin-2-yl)pyrrolo[2,1-f][1,2,4]triazin-4-amine]",25 to 49%,1 to 24%
< 150 nM,–,"Cc1c(-c2ccn(C)n2)cn2nc(-c3nccn3C)nc(Nc3ccc(C(F)(F)F)cn3)c12 [Compound 233, 5-Methyl-2-(1-methyl-1H-imidazol-2-yl)-6-(1-methyl-1H-pyrazol-3-yl)-N-(5-(trifluoromethyl)pyridin-2-yl)pyrrolo[2,1-f][1,2,4]triazin-4-amine]",25 to 49%,1 to 24%
